In patent publication US10222381B2, “Water-soluble peptide fluorescence material” (NATIONAL CHIAO TUNG UNIVERSITY, priority 2015, dated 2019):
Non-standard residues stand in square brackets, D forms with d. Residues, ends and D or L forms follow the SMILES beside them. ξ: configuration not given here. *: point of attachment. Acetyl(1,8-naphthalimido) = O=C1c2cccc3cccc(c23)C(=O)N1CC(=O)*; X2 = O=C1c2cccc3c(N4CCCCC4)ccc(c23)C(=O)N1CC(=O)*; ξY = NC(Cc1ccc(O)cc1)C(=O)O; ξE = NC(CCC(=O)O)C(=O)O

How the values were obtained:
[1] = Fluorescence in co-solvents of water and dimethyl sulfoxide (aggregation-induced emission); format: physicochemical; conditions: for fluorescence intensity with increase of the volume ratio of water: aggregation-induced emission; for color of observed fluorescence / emission wavelength: water/dimethyl sulfoxide co-solvent
From the text: Continuing in FIG. 4, which illustrates a fluorescence intensity and an emission wavelength of the water-soluble peptide fluorescence material of formula (III-1) in co-solvents having different proportions of water and dimethyl sulfoxide. In Experimental Example 401, 402, 403, 404, 405, 406, 407, 408, 409, 410 and 411, water respectively has 0, 10, 20, 30, 40, 50, 60, 70, 80, 90 and 100% of a total volume of the co-solvent. […] As such, no significant fluorescence marker is shown, so it is difficult to observe apparent fluorescence visually. […] Given the above, the fluorescence intensity of the water-soluble peptide fluorescence material of formula (III-1) is increased corresponding to the increase of the volume ratio of water, which is also referred as aggregation-induced emission (AIE). In addition, the water-soluble peptide fluorescence material of formula (III-1) has the emission wavelength of about 400 nm, so the observed fluorescence has a color of blue violet.
Continuing in FIG. 9, which illustrates a fluorescence intensity and an emission wavelength of the water-soluble peptide fluorescence material of formula (III-23) in co-solvents having different proportions of water and dimethyl sulfoxide. In Experimental Examples 901, 902, 903, 904, 905, 906, 907, 908, 909 and 910, water respectively has 0, 10, 20, 30, 40, 50, 60, 70, 80 and 90% of a total volume of the co-solvent. […] Given the above, the fluorescence intensity of the water-soluble peptide fluorescence material of formula (III-23) is increased corresponding to the increase of the volume ratio of water and has a phenomenon of aggregation-induced emission in water. In addition, the water-soluble peptide fluorescence material of formula (III-23) has the emission wavelength of about 550 nm, so the observed fluorescence has a color of green.
FIG. 12 illustrates a fluorescence intensity and an emission wavelength of the water-soluble peptide fluorescence material of formula (III-28) in co-solvents having different proportions of water and dimethyl sulfoxide. In Experimental Example 1201, 1202, 1203, 1204, 1205, 1206, 1207, 1208, 1209, 1210 and 1211, water respectively has 0, 10, 20, 30, 40, 50, 60, 70, 80, 90 and 99% of a total volume of the co-solvent. […] As such, no significant fluorescence marker is shown, so it is difficult to observe apparent fluorescence visually. […] Given the above, the fluorescence intensity of the water-soluble peptide fluorescence material of formula (III-28) is increased corresponding to the increase of the volume ratio of water and has a phenomenon of aggregation-induced emission in water. In addition, the water-soluble peptide fluorescence material of formula (III-28) has the emission wavelength of about 400 nm, so the observed fluorescence has a color of violet. FIG. 13 depicts a ratio of the fluorescence intensity between Experimental Examples 1202 to 1211 and Experimental Example 1201, at the emission wavelength of 400 nm.
FIG. 15 illustrates a fluorescence intensity and an emission wavelength of the water-soluble peptide fluorescence material of formula (III-30) in co-solvents having different proportions of water and dimethyl sulfoxide. In Experimental Example 1501, 1502, 1503, 1504, 1505, 1506, 1507, 1508, 1509, 1510 and 1511, water respectively has 0, 10, 20, 30, 40, 50, 60, 70, 80, 90 and 100% of a total volume of the co-solvent. […] As such, no significant fluorescence marker is shown, so it is difficult to observe apparent fluorescence visually. […] Accordingly, the fluorescence intensity of the water-soluble peptide fluorescence material of formula (III-30) is increased corresponding to the increase of the volume ratio of water and has a phenomenon of aggregation-induced emission in water. In addition, the water-soluble peptide fluorescence material of formula (III-30) has the emission wavelength of about 400 to 425 nm, so the observed fluorescence has a color of blue violet. […]

[2] = Fluorescence intensity and emission wavelength at different pH values; format: physicochemical; conditions: for color of fluorescence / emission peak: pH 5; for pH value of the highest fluorescence intensity: pH 10 to 3 tested; for fluorescence intensity: pH 10 to 6
From the text: In Experimental Examples 210, 220, 230, 240, 250, 260, 270 and 280, the above water-soluble peptide fluorescence material is respectively placed in environments having a pH value of 10, 9, 8, 7, 6, 5, 4 and 3 for testing. In Experimental Examples 210 to 230, the water-soluble peptide fluorescence material is respectively placed in environments having the pH value of 10, 9 and 8.
Continuing in FIG. 5, which illustrates a fluorescence intensity and an emission wavelength of the water-soluble peptide fluorescence material of formula (III-10) at different pH values. In Experimental Examples 510, 520, 530, 540, 550, 560, 570 and 580, the water-soluble peptide fluorescence material of formula (III-10) is respectively placed in environments having a pH value of 10, 9, 8, 7, 6, 5, 4 and 3 for testing. In Experimental Examples 510 to 560, the water-soluble peptide fluorescence material is placed in environments having the pH value of 10 to 5, and two emission peaks are shown in FIG. 5. […] Then, the pH value is further decrease to 4 (Experimental Example 570) and 3 (Experimental Example 580), and only the emission peak at about 400 nm is remained, so the observed fluorescence has a color of purple in Experimental Examples 570 and 580. Therefore, the water-soluble peptide fluorescence material of formula (III-10) is able to detect and mark locations of acidic cells by change of the color.
Continuing in FIG. 7, which illustrates a fluorescence intensity and an emission wavelength of the water-soluble peptide fluorescence material of formula (III-21) at different pH values. In Experimental Examples 710, 720, 730, 740, 750, 760, 770 and 780, the water-soluble peptide fluorescence material of formula (III-21) is respectively placed in environments having a pH value of 10, 9, 8, 7, 6, 5, 4 and 3 for testing. In Experimental Examples 710 to 750, the water-soluble peptide fluorescence material is placed in environments having the pH value of 10 to 6. […] However, the fluorescence intensity of Experimental Examples 780 is decreased when the pH value is decreased from 4 to 3.
Continuing in FIG. 8, which illustrates a fluorescence intensity and an emission wavelength of the water-soluble peptide fluorescence material of formula (III-22) at different pH values. In Experimental Examples 810, 820, 830, 840, 850, 860, 870 and 880, the water-soluble peptide fluorescence material of formula (III-22) is respectively placed in environments having a pH value of 10, 9, 8, 7, 6, 5, 4 and 3 for testing. In Experimental Examples 810 to 850, the water-soluble peptide fluorescence material is respectively placed in environments having the pH value of 10 to 6. […] In addition, the fluorescence intensity of Experimental Example 860 (pH=5) is 90 times of the fluorescence intensity of Experimental Example 810 […], which represents that the water-soluble peptide fluorescence material has obvious light-emitting interval and easily to identify and detect positions of the acidic cells.
FIG. 10 illustrates a fluorescence intensity and an emission wavelength of the water-soluble peptide fluorescence material of formula (III-23) at different pH values. In Experimental Examples 1010, 1020, 1030, 1040, 1050, 1060, 1070 and 1080, the water-soluble peptide fluorescence material of formula (III-23) is respectively placed in environments having a pH value of 10, 9, 8, 7, 6, 5, 4 and 3 for testing. In Experimental Examples 1010 to 1050, the water-soluble peptide fluorescence material is respectively placed in environments having the pH value of 10 to 6. […] The water-soluble peptide fluorescence material not only provides obvious marker, but also achieves the same effect of the fluorescence at a low concentration, and thereby reduces the costs.
FIG. 11 illustrates a fluorescence intensity and an emission wavelength of the water-soluble peptide fluorescence material of formula (III-27) at different pH values. […]

Compound: O=C(CN1C(=O)c2cccc3cccc(c23)C1=O)NC(Cc1ccccc1)C(=O)O (centres unmarked) [III-1]
- fluorescence intensity with increase of the volume ratio of water [1]: increased
- fluorescence intensity ([1]; water 0 to 70% of co-solvent volume): low fluorescence intensity
- fluorescence intensity ([1]; water 80%): 50 fluorescent units
- fluorescence intensity ([1]; water 90%): 100 fluorescent units
- fluorescence intensity ([1]; water 100%): about 650 fluorescent units
- color of observed fluorescence [1]: blue violet
- emission wavelength [1]: about 400 nm

Compound: O=C(CN1C(=O)c2cccc3cccc(c23)C1=O)NCC(=O)NC(Cc1ccccc1)C(=O)O (centres unmarked) [III-10]
- color of observed fluorescence ([2]; pH 4 and 3): purple
- emission peak (only one remained) ([2]; pH 4 and 3): about 400 nm
- color of observed fluorescence ([2]; pH 10 to 5): mixed light of green light and purple light
- emission peak (first) ([2]; pH 10 to 5): about 400 nm
- emission peak (other) ([2]; pH 10 to 5): about 500 nm

Compound: O=C(O)CCC(NC(=O)[C@H](Cc1ccccc1)NC(=O)CN1C(=O)c2cccc3c(N4CCCCC4)ccc(c23)C1=O)C(=O)O (some centres unmarked) [III-21]
- color of fluorescence [2]: green
- emission peak [2]: about 550 nm
- pH value of the highest fluorescence intensity [2]: 4
- fluorescence intensity [2]: low fluorescence intensities
- change of fluorescence intensity ([2]; pH decreased from 4 to 3): decreased
- change of fluorescence intensity ([2]; pH decreased from 5 to 4): further increased
- change of fluorescence intensity ([2]; pH decreased to 5): significantly increased

Compound: O=C(O)C[C@H](NC(=O)[C@H](CC(=O)O)NC(=O)[C@H](Cc1ccccc1)NC(=O)CN1C(=O)c2cccc3c(N4CCCCC4)ccc(c23)C1=O)C(=O)O [III-22]
- ratio of fluorescence intensity Experimental Example 860 (pH=5) to Experimental Example 810 (pH=1) [2]: 90 times
- color of fluorescence [2]: yellow
- emission peak [2]: about 575 nm
- pH value of the highest fluorescence intensity [2]: 5
- fluorescence intensity [2]: low fluorescence intensities
- change of fluorescence intensity ([2]; pH decreased from 4 to 3): slightly increased
- change of fluorescence intensity ([2]; pH decreased from 5 to 4): decreased
- change of fluorescence intensity ([2]; pH decreased to 5): significantly increased

Compound: O=C(O)C[C@H](NC(=O)[C@H](CC(=O)O)NC(=O)[C@H](Cc1ccccc1)NC(=O)CN1C(=O)c2cccc3c(N4CCCCC4)ccc(c23)C1=O)C(=O)O [III-23]
- color of fluorescence [2]: green
- emission peak [2]: about 525 nm
- fluorescence intensity [2]: low fluorescence intensities
- change of fluorescence intensity ([2]; pH decreased to 4 and 3): slightly increased
- change of fluorescence intensity ([2]; pH decreased to 5): significantly increased
- fluorescence intensity with increase of the volume ratio of water [1]: increased
- fluorescence intensity ([1]; water 90% (Experimental Example 910), water 0 to 90% tested): highest fluorescence intensity
- color of observed fluorescence [1]: green
- emission wavelength [1]: about 550 nm

Compound: O=C(O)CCC(NC(=O)C(CCC(=O)O)NC(=O)C(CCC(=O)O)NC(=O)[C@H](Cc1ccccc1)NC(=O)CN1C(=O)c2cccc3c(N4CCCCC4)ccc(c23)C1=O)C(=O)O (some centres unmarked) [III-27] (X2-F[ξE][ξE][ξE]-OH)
- color of fluorescence [2]: green
- emission peak [2]: about 525 nm
- fluorescence intensity [2]: low fluorescence intensities
- change of fluorescence intensity ([2]; pH decreased to 4 and 3): significantly increased
- change of fluorescence intensity ([2]; pH decreased to 5): significantly increased

Compound: O=C(CNC(=O)CNC(=O)CN1C(=O)c2cccc3cccc(c23)C1=O)NCC(=O)NCC(=O)NCC(=O)NC(Cc1ccc(O)cc1)C(=O)O (centres unmarked) [III-30] ({Acetyl(1,8-naphthalimido)}-GGGGG[ξY]-OH)
- fluorescence intensity with increase of the volume ratio of water [1]: increased
- ratio of fluorescence intensity Experimental Example 1511 to 1501 (0% water) ([1]; emission wavelength of 410 nm): 100 times
- fluorescence intensity ([1]; water 0 to 80%): lower than 100 fluorescent units
- fluorescence intensity ([1]; water 90%): 200 fluorescent units
- fluorescence intensity ([1]; water 99%): about 700 fluorescent units
- color of observed fluorescence [1]: blue violet
